Test results: patent US11857544B2, “Composition or method including (t)ew-7197 for treating or preventing corneal endothelial diseases” (THE DOSHISHA, priority 2017, dated 2024)

How the values were obtained:
[1] = tested on: Col8a2 knock-in mice; assay: Corneal endothelial cell density after eye drops in Col8a2 knock-in mice (Example 6, 12 weeks); assay type: in vivo; details: eye drop group (0.02%, 0.1%)
Protocol: 5 μL of 0.02% (about 0.5 mM) EW-7197 eye drop, 0.1% (about 2.5 mM) EW-7197 eye drop, or a base agent (DMSO containing phosphate buffer) was administered as an eye drop to both eyes of 4-month-old alpha 2 collagen 8 gene (Col8a2) knock-in mice 4 times a day for 12 weeks. A surfactant was added to the base agent as needed. Those skilled in the art can use an appropriate and suitable surfactant (Kenji Motose (1984). “Tenganzai” [Eye drops] Nanzando; International Pharmaceutical Excipients Council Japan (2016). “Iyakuhin Tenkabutsu Jiten” [Pharmaceutical Excipient Encyclopedia] Yakuji Nippo, Limited). The corneal endothelial cell density was measured using a specular microscope KS3M (Konan Medical, Inc.) at before eye drops, and 3, 6, 9, and 12 weeks after eye drops. Mice were euthanized by intraperitoneally administering an excessive amount (200 mg/kg body weight or greater) of anesthetic injection Somnopentyl (Kyoritsu Seiyaku Corporation) 12 weeks after injection. After confirming cardiac arrest, both eye balls were harvested. The harvested eye balls were incised to prepare a corneal fragment. Immunostaining of fibronectin was performed. The immunostaining method was the following. Image-Pro (Nippon Roper K.K.) was used to analyze the area of fibronectin expression.

[2] = tested on: activated form of cleaved caspase 3; assay: Western blot for cleaved caspase 3 in TGF-β-stimulated iFECD; assay type: cell-based, human; details: 0.1, 1, 10 μM
Protocol: […] were seeded on a 12-well plate at a ratio of 8×10^4 cells per well, and cultured at 37° C. (5% CO2) for 24 hours. DMEM+10% FBS+1% P/S was used as the medium. After 24 hours, the medium was removed. EW-7197 (Selleck Chemicals, 57530) was added so that the final concentration would be 0.1, 1, or 10 μM, and SB431542 (WAKO, 192-16541) was added so that the final concentration would be 10 μM, and the medium was cultured for 24 hours. DMEM+2% FBS+1% P/S was used as the medium. After 24 hours, the medium was removed and cultured […] so that the final concentration of 10 ng/ml of Transforming Growth Factor-132 Human recombinant (WAKO, 200-19911) and […] would be 0.1, 1, and 10 μM, and that of SB431542 would be 10 μM. DMEM+2% FBS+1% P/S was used as the medium. After 24 hours, the cell morphology and apoptosis were observed under a phase contrast microscope. To retrieve floating and dead cells, the medium was retrieved on ice, cells were washed twice with 1×PBS(-) and the solution thereof was also retrieved. The solution was centrifuged for 5 min at 4° C. and 800 g and the supernatant was discarded to obtain a precipitate. […] The detected band intensities were analyzed with Lumino Image Analyzer LAS-4000 mini (Fuji Film) and ImageQuantTM software (GE Healthcare).

[3] = tested on: fibronectin; assay: Area of fibronectin expression by immunostaining, Col8a2 knock-in mice (Example 5); assay type: in vivo; details: 0.02% eye drop, 8 weeks
Protocol: 5 μL of 0.02% (about 0.5 mM) EW-7197 eye drop or a base agent (7% DMSO containing PBS) was administered as an eye drop to both eyes of 4-month-old alpha 2 collagen 8 gene (Col8a2) knock-in mice 4 times a day for 8 weeks. The corneal endothelial cell density was measured using a specular microscope KS3M (Konan Medical, Inc.) at before eye drops, and 2, 4, 6, and 8 weeks after eye drops. Mice were euthanized by intraperitoneally administering an excessive amount (200 mg/kg body weight or greater) of anesthetic injection Somnopentyl (Kyoritsu Seiyaku Corporation) 8 weeks after injection. After confirming cardiac arrest, both eye balls were harvested. The harvested eye balls were incised to prepare a corneal fragment. Immunostaining of type I collagen and fibronectin was performed as follows. Image-Pro (Nippon Roper K.K.) was used to analyze the area of type I collagen and fibronectin expression.
After immobilizing a mouse corneal fragment for 10 minutes at room temperature in 4% paraformaldehyde, 0.5% TritonX-100 was added and allowed to permeate for 5 minutes. 1% bovine serum albumin (BSA) was added and the fragment was incubated for 1 hour at room temperature. The corneal fragment was then immersed in a primary antibody solution and reacted overnight at 4° C. […]

For `Cc1cccc(-c2[nH]c(CNc3ccccc3F)nc2-c2ccc3ncnn3c2)n1` [EW-7197, N-((4-([1,2,4]triazolo[1,5-a]pyridin-6-yl)-5-(6-methylpyridin-2-yl)-1H-imidazol-2-yl)methyl)-2-fluoroaniline], which “corneal endothelial density at the center section of the cornea” value ([1]; up to week 6) is on record?
The value was “tendency for suppressing a decrease”.

And the “corneal endothelial density at the center section of the cornea vs base agent eye drop group” value ([1]; week 12)?
Its value is “a significant difference in the corneal endothelial density at the center section of the cornea was not observed”.

And the “activated form of cleaved caspase 3 (about 17 kDa)” value [2]?
The value was “suppressed to the same degree as the control group without stimulation with TGF-β or 10 μM of SB431542”.

What about the “area of fibronectin expression compared to the base agent group” value [3] of the same compound?
The value was “decreasing trend”.
